Assay results: US4657865A, “Pullulanase-like enzyme, method for preparation thereof, and method for saccharification of starch therewith” (Agency of Industrial Science & Technology, priority 1985, dated 1987)

Assays:
[1] = test system: pullulanase-like enzyme; assay: Inhibition of the pullulanase activity by metal salts; type: biochemical, Bacillus subtilis; settings: inhibitor concentration 1×10^-3 M
Procedure: (6) Inhibitor: This enzyme undergoes not less than 90% of inhibition by each of HgCl2 and AgNO3 used in a concentration of 1×10^-3 M and about 70% of inhibition by ZnSO4 used in the same concentration.
(10) Procedure for determination of activity: This enzyme is added in a suitable amount to 0.5 ml of a 1% pullulan solution (pH 7.0) obtained by dissolving pullulan in 0.1M phosphate buffer. The mixture is made up to a total volume of 1 ml with water and incubated at 40° C. The amount of this enzyme which is required in producing reducing power equivalent to 1μ mole of glucose after one minute standing under the aforementioned conditions is defined as one unit.

[2] = test system: Bacillus subtilis TU strain; assay: Growth on culture medium containing Tunicamycin, TU strain; type: cell-based; settings: culture medium containing Tunicamycin 25-100 μg/ml
From the text: (§1) The aforementioned pullulanase-like enzyme is produced by a bacterium isolated from soil and identified to be Bacillus subtilis (FERM BP-672). […] It has been designated as Bacillus subtilis TU strain, deposited with Fermentation Research Institute, Agency of Industrial Science & Technology on Oct. 13, 1984 under FERM 7893, and also transferred to the International Deposition based on the Budapest Treaty on Dec. 20, 1984 and designated FERM BP-684.
(§2) A strain of Bacillus subtilis (FERM BP-672) was suspended in distilled water and irradiated with the ultraviolet light (15 W) from its source at a distance of about 30 cm for 5 minutes. Part of the irradiated suspension was placed in a culture medium containing 75 μg of Tunicamycin per ml (containing 1% of polypepton, 1% of soluble starch, 0.3% of K2 HPO4, and 0.1% of MgSO4.7H2 O) and aerobically cultured therein at 30° C. for three days. The grown microorganism was sprayed on a plate culture medium with the same culture medium containing agar and incubated at 30° C. The colonies which grew were preserved on a slant medium of the same composition. In the Tunicamycin-resistant mutants so produced, there was obtained in high frequency a strain of enhanced activity to produce the pullulanase-like enzyme. Bacillus subtilis TU strain (FERM BP-684) was thus obtained.

[3] = test system: Bacillus subtilis (FERM BP-672) parent strain; assay: Growth on culture medium containing Tunicamycin, parent strain; type: cell-based; settings: culture medium containing Tunicamycin 25-100 μg/ml
From the text: as §1, §2

For O=[N+]([O-])[O-].[Ag+] [AgNO3], the inhibition [1] was “not less than 90%”.

In the case of [Cl][Hg][Cl] [HgCl2], the inhibition [1] is reported as “not less than 90%”.

O=S(=O)([O-])[O-].[Zn+2] [ZnSO4] was tested, and the inhibition [1] was “about 70%”.

In the case of Tunicamycin, the “growth of the TU strain” value [2] is reported as “grows fairly well” and the “growth of the parent strain” value [3] is reported as “fails to show any growth”.
